In ChEMBL document CHEMBL1201862, “PubChem BioAssay data set” (2004):
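These data come from cells grown in 96-well plates and exposed to compound for 48 hours at five concentrations. Abbreviation: GI50, concentration required for 50% inhibition of growth.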 Calls of active or inactive are those of the source. No stated cut-off is given here; in the data, active = GI50 up to about 1.1 µM and inactive = higher.

What was measured:
Assay in all cases: NCI tumour cell line growth inhibition, 48 h
Hs-578T = test system: Hs-578T
KM12 = test system: KM12
RPMI-8226 = test system: RPMI-8226
K562 = test system: K562
A549 = test system: A549
COLO 205 = test system: COLO 205
HCT-116 = test system: HCT-116
U-251 = test system: U-251
SF-295 = test system: SF-295
Malme-3M = test system: Malme-3M
SNB-75 = test system: SNB-75
UACC-62 = test system: UACC-62
NCI-H23 = test system: NCI-H23
MCF7 = test system: MCF7
HCT-15 = test system: HCT-15
OVCAR-4 = test system: OVCAR-4
HCC 2998 = test system: HCC 2998
MOLT-4 = test system: MOLT-4
SK-MEL-5 = test system: SK-MEL-5
CAKI-1 = test system: CAKI-1
M14 = test system: M14
TK-10 = test system: TK-10
UACC-257 = test system: UACC-257
HOP-62 = test system: HOP-62
LOX IMVI = test system: LOX IMVI
IGROV-1 = test system: IGROV-1
DU-145 = test system: DU-145
NCI-H522 = test system: NCI-H522
HT-29 = test system: HT-29
SF-539 = test system: SF-539
PC-3 = test system: PC-3
ACHN = test system: ACHN
SF-268 = test system: SF-268
SK-OV-3 = test system: SK-OV-3
OVCAR-8 = test system: OVCAR-8
CCRF-CEM = test system: CCRF-CEM
OVCAR-3 = test system: OVCAR-3
BT-549 = test system: BT-549
HL-60 = test system: HL-60
SR = test system: SR
SK-MEL-28 = test system: SK-MEL-28
NCI-H460 = test system: NCI-H460
MDA-N = test system: MDA-N
SNB-19 = test system: SNB-19
786-0 = test system: 786-0
RXF 393 = test system: RXF 393
SN12C = test system: SN12C
NCI-H226 = test system: NCI-H226
EKVX = test system: EKVX
MDA-MB-435 = test system: MDA-MB-435
MDA-MB-231 = test system: MDA-MB-231
NCI/ADR-RES = test system: NCI/ADR-RES
OVCAR-5 = test system: OVCAR-5
UO-31 = test system: UO-31
SK-MEL-2 = test system: SK-MEL-2
T47D = test system: T47D
SW-620 = test system: SW-620
HOP-92 = test system: HOP-92

Cn1c2ccccc2c(=NNc2ccccc2C(=O)O)c2ccccc21
GI50 (Hs-578T): 21.9 µM (inactive) | GI50 (KM12): 12.7 µM (inactive) | GI50 (RPMI-8226): 9.82 µM (inactive) | GI50 (K562): 8.97 µM (inactive) | GI50 (A549): 12.9 µM (inactive) | GI50 (COLO 205): 16.3 µM (inactive) | GI50 (HCT-116): 13.5 µM (inactive) | GI50 (U-251): 7.03 µM (inactive) | GI50 (SF-295): 17.6 µM (inactive) | GI50 (Malme-3M): 20.4 µM (inactive) | GI50 (SNB-75): 21.1 µM (inactive) | GI50 (UACC-62): 19.5 µM (inactive) | GI50 (NCI-H23): 20.9 µM (inactive) | GI50 (MCF7): 10.9 µM (inactive) | GI50 (HCT-15): 7.87 µM | GI50 (OVCAR-4): 13.7 µM (inactive) | GI50 (HCC 2998): 19.7 µM (inactive) | GI50 (MOLT-4): 10.9 µM (inactive) | GI50 (SK-MEL-5): 13.7 µM (inactive) | GI50 (CAKI-1): 23.3 µM (inactive) | GI50 (M14): 22.6 µM (inactive) | GI50 (TK-10): 32.1 µM (inactive) | GI50 (UACC-257): 23.8 µM (inactive) | GI50 (HOP-62): 23.1 µM (inactive) | GI50 (LOX IMVI): 11.8 µM (inactive) | GI50 (IGROV-1): 24.2 µM (inactive) | GI50 (DU-145): 27.5 µM (inactive) | GI50 (NCI-H522): 12 µM (inactive) | GI50 (HT-29): 17.7 µM (inactive) | GI50 (SF-539): 13.1 µM (inactive) | GI50 (PC-3): 12.3 µM (inactive) | GI50 (ACHN): 15.5 µM (inactive) | GI50 (SF-268): 15.8 µM (inactive) | GI50 (SK-OV-3): 20.3 µM (inactive) | GI50 (OVCAR-8): 17.5 µM (inactive) | GI50 (CCRF-CEM): 13.2 µM (inactive) | GI50 (OVCAR-3): 10.8 µM (inactive) | GI50 (BT-549): 19.1 µM (inactive) | GI50 (HL-60): 17 µM (inactive) | GI50 (SR): 11.9 µM (inactive) | GI50 (SK-MEL-28): 20.2 µM (inactive) | GI50 (NCI-H460): 13.2 µM (inactive) | GI50 (MDA-N): 21.2 µM (inactive) | GI50 (SNB-19): 24.4 µM (inactive) | GI50 (786-0): 27.5 µM (inactive) | GI50 (RXF 393): 12.7 µM (inactive) | GI50 (SN12C): 23.7 µM (inactive) | GI50 (NCI-H226): 16.2 µM (inactive) | GI50 (EKVX): 11.8 µM (inactive) | GI50 (MDA-MB-435): 20 µM (inactive) | GI50 (MDA-MB-231): 16.9 µM (inactive) | GI50 (NCI/ADR-RES): 20.1 µM (inactive) | GI50 (OVCAR-5): 30.3 µM (inactive) | GI50 (UO-31): 18.4 µM (inactive) | GI50 (SK-MEL-2): 18.7 µM (inactive) | GI50 (T47D): 20.3 µM (inactive) | GI50 (SW-620): 24.4 µM (inactive) | GI50 (HOP-92): 21.7 µM (inactive)
